Read-outs that look alike come from different tables or passages of the source. One block for each molecule: values may come before it.
What was measured:
PI3KC2A = target: T1, PI3KC2A (Homo sapiens, UniProt O00443); experiment: Kinase panel assay (lipid kinase); type: biochemical; details: read-out: IC50 (M) of Control (+)
T1 construct: purchased Reaction Biology Corp
Experimental: (§1) Every inhibitory activity of tested compounds was measured by radiolabelled method of Reaction Biology Corp). The radiolabelled ATP ([γ-^33P] ATP) replaced a substrate with ^33P-phosphorylated substrate so that the activity of a kinase was measured from the radiolabelled phosphorylated substrate. Kinase panel assay was tested at 30 μM testing compounds with an ATP concentration of 10 μM and a substrate concentration of 10 μM. % Residual activity against GSK3β was measured at 10 uM compounds 1 and 2. […] Curve fits of control compounds were performed where the enzyme activities at the highest concentration of compounds were less than 65%. The concentration of DMSO was controlled and raw data, % kinase activity was calculated relative to DMSO controls.

GSK3β = GSK3β (Homo sapiens, UniProt P49841); experiment: GSK3β radiolabelled kinase assay (% residual activity, IC50, ATP competition); type: biochemical; details: at 10 μM compound
[1] = tested on: NO production in LPS-activated BV-2 cells; experiment: NO production assay (Griess) in LPS-activated BV-2 cells; type: cell-based, murine; details: read-out: NO Inhibition IC50
Experimental: (§2) 3-(4,5-dimethylthiazol-2-yl)-2,5-diphenyl-tetrazolium bromide (MTT) assay was performed to evaluate the cytotoxicity of the samples to the microglia. BV2 cells at the density of 4 × 10^4 cells /well were seeded in the 96 well plate and incubated for 24 h. Seeded cells were pre-treated with different concentration of the samples, and LPS (100 ng/ml) activation was performed after 30 min of compound treatment. Treated plate were incubated for 24 h in the incubator and nitric oxide assay and cell viability assay was performed. Treated cell’s conditioned medium was used to evaluate the NO assay, and the attached cells were used to evaluate the cell viability assay. 50 µL of conditioned medium (CM) from treated cells were transferred to a new 96 well plate for NO assay. This CM was mixed with the equal volume of the mixture of Gries reagent ((1% sulfanilamide and 0.1% N-1-napthylethylenediamine dihydrochloride). NaNO2 was used as standard and the colorimetric change were evidenced by measuring its OD at 540 nm in a microplate reader. The cells in the plate were incubated for 1 h with MTT solution making it the final concentration of […]. Blue stained cells were incubated with 200 ul of DMSO and the solution get changed to purple/formazan color and it was observed by measuring the absorbance at 570 nm in a microplate reader.NG-mono-methyl-L-arginine (L-NMMA), a well-known nitric oxide synthase (NOS) inhibitor, was used as a positive control.

MTT cell viability assay = type: cell-based, murine; details: mouse, BV-2 microglia cells (LPS-activated), mean ± SD
Experimental: as §2

iNOS = experiment: Western blot of iNOS in LPS-induced BV-2 cells; type: cell-based, murine; details: 0.01 to 1 uM, LPS-induced BV-2 cells
Experimental: (§3) Western blot analysis was performed to see the protein expression of the iNOS and COX-2 in the BV2 cells. BV2 cells were seeded in a 6 well plate at the density of 6 × 10^5 cells/well overnight and cells were treated as mentioned earlier in the cell treatment section and this time treatment was performed for 6 h only. After 6 h, cells were harvested and lysed with lysis buffer containing (RIPA, protease inhibitor & phosphatase inhibitor), protein estimation was performed using biorad assay and the 30 µg of total protein was separated by 8% SDS-PAGE gel electrophoresis, transferred to nitrocellulose membranes, and incubated with primary antibodies against tubulin, iNOS, COX-2, and α-tubulin. […] membranes were incubated with horseradish peroxidase-conjugated secondary antibodies, and protein bands were visualized using ECL Western Blotting Detection Reagents (Amersham Pharmacia Biotech). Quantitative analysis of the protein bands was quantified using Image Master 2D Elite software (version 3.1, Amersham Pharmacia Biotech).

COX-2 = experiment: Western blot of COX-2 in LPS-induced BV-2 cells; type: cell-based, murine; details: 0.01 to 1 uM
Experimental: as §3

PI3KC3 = target: T2, PI3KC3 (Homo sapiens, UniProt Q8NEB9); experiment: Kinase panel assay (lipid kinase); type: biochemical; details: control PIK-93
T2 construct: purchased Reaction Biology Corp
Experimental: as §1

PI4K2A = target: T3, PI4K2A (Homo sapiens, UniProt Q9BTU6); experiment: Kinase panel assay (lipid kinase); type: biochemical; details: control PIK-93
T3 construct: purchased Reaction Biology Corp
Experimental: as §1

PIP5K1A = target: T4, PIP5K1A (Homo sapiens, UniProt Q99755); experiment: Kinase panel assay (lipid kinase); type: biochemical; details: control PIK-93
T4 construct: purchased Reaction Biology Corp
Experimental: as §1

PIP5K1C = target: T5, PIP5K1C (Homo sapiens, UniProt O60331); experiment: Kinase panel assay (lipid kinase); type: biochemical; details: control PIK-93
T5 construct: purchased Reaction Biology Corp
Experimental: as §1

BV-2 cells = experiment: MTT cell viability assay; type: cell-based, murine; details: 5 μM compound, % of LPS, mean ± SD
Experimental: as §2

Sequence of GSK3β (P49841 whole entry): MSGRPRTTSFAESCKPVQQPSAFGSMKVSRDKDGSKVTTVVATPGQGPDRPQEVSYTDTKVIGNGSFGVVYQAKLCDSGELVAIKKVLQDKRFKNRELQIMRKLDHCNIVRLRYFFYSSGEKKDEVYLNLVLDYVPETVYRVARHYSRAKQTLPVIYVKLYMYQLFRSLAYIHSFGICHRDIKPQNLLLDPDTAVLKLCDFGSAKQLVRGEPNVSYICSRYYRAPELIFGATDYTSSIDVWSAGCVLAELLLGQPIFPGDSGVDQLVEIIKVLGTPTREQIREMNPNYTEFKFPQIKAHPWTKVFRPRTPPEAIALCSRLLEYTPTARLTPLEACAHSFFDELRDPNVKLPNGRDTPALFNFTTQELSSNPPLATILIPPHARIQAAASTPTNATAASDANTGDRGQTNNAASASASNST
T3 sequence (Q9BTU6 whole entry): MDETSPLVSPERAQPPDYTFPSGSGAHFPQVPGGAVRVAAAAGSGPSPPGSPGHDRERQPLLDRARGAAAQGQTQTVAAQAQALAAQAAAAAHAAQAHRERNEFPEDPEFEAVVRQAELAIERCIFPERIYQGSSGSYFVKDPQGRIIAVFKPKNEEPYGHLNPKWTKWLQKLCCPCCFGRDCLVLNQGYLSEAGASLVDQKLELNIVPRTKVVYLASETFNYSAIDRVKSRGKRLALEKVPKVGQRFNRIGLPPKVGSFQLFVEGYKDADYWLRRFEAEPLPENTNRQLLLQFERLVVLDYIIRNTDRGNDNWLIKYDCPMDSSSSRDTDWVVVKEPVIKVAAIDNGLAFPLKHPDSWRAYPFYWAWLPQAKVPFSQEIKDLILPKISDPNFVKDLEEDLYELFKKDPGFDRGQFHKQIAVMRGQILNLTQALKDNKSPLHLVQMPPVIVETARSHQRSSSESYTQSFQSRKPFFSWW
T1 sequence (O00443 whole entry): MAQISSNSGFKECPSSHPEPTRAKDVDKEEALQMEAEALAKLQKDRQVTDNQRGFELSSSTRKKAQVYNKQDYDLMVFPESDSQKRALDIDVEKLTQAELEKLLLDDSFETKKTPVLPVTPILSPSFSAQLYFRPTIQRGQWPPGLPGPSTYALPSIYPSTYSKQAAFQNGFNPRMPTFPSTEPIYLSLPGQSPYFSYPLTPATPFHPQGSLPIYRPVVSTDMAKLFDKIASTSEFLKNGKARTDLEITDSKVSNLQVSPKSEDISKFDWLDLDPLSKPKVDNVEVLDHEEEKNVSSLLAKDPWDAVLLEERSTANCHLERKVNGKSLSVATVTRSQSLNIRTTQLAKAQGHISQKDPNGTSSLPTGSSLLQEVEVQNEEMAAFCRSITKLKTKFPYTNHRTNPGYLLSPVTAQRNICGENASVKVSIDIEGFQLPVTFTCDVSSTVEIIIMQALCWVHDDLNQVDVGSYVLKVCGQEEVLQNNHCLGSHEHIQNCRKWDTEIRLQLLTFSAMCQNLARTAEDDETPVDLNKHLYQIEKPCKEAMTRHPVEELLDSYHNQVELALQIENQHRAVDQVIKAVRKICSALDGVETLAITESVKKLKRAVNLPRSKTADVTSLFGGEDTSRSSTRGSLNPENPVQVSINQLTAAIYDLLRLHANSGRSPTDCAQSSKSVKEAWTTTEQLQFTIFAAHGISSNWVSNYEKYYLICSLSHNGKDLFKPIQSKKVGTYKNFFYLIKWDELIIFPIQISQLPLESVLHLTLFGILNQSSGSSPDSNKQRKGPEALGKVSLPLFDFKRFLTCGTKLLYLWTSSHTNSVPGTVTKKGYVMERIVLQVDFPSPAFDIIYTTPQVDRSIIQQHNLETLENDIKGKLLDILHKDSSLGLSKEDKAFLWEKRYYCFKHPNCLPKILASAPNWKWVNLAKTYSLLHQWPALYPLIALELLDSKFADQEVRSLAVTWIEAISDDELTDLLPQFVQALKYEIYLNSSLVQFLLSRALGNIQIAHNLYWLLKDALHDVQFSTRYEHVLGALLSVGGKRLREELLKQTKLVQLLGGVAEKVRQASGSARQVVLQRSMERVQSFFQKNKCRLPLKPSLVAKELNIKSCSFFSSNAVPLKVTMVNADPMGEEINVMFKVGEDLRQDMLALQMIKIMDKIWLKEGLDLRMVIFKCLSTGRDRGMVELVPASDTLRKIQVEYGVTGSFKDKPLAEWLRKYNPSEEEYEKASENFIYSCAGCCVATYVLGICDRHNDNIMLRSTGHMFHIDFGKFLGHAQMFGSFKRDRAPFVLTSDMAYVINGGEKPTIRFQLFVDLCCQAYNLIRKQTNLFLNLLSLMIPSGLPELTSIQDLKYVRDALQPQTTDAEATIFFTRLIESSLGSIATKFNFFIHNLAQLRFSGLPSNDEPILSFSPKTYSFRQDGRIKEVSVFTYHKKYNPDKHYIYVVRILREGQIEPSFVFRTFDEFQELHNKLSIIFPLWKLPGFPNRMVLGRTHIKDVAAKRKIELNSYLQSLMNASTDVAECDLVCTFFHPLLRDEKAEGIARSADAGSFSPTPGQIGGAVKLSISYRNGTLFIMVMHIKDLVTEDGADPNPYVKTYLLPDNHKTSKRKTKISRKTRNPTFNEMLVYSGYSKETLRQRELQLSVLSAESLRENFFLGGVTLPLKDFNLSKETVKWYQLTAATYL
T4 sequence (Q99755 whole entry): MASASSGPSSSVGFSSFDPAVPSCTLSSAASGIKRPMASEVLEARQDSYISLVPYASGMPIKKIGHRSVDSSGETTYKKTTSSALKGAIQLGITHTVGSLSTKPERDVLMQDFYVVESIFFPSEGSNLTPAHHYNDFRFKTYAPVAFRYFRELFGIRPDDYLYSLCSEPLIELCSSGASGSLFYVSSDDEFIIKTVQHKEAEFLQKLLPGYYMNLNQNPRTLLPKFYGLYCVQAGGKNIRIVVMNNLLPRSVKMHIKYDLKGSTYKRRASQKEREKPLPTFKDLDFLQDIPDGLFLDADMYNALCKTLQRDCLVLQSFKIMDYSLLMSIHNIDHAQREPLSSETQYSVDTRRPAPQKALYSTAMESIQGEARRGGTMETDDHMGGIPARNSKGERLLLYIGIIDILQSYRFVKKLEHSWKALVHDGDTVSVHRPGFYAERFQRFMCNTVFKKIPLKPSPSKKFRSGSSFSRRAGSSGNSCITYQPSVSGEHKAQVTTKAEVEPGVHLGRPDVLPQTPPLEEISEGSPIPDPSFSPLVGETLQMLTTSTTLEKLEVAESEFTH
T2 sequence (Q8NEB9 whole entry): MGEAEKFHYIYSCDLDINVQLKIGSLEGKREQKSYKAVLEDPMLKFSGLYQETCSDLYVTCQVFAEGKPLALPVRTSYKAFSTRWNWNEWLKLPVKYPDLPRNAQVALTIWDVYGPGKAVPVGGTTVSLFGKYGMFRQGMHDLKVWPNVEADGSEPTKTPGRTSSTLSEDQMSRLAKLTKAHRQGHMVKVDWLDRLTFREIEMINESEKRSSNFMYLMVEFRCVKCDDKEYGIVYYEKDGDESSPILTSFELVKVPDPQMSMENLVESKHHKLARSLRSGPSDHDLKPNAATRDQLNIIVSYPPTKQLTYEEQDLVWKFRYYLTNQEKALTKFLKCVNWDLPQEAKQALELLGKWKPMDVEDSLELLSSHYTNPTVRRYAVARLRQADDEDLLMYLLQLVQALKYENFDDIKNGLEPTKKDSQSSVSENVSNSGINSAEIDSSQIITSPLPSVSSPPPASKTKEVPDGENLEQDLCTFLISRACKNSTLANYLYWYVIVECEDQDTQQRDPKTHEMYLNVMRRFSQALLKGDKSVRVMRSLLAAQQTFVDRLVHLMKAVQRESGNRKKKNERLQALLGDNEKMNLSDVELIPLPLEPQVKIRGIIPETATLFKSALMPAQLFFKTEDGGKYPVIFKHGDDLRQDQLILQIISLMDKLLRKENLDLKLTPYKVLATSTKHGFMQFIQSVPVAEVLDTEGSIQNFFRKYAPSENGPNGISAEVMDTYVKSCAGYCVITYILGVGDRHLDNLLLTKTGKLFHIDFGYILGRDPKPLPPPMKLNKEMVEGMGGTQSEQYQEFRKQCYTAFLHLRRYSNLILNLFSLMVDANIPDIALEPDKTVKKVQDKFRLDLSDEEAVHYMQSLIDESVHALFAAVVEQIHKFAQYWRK
T5 sequence (O60331 whole entry): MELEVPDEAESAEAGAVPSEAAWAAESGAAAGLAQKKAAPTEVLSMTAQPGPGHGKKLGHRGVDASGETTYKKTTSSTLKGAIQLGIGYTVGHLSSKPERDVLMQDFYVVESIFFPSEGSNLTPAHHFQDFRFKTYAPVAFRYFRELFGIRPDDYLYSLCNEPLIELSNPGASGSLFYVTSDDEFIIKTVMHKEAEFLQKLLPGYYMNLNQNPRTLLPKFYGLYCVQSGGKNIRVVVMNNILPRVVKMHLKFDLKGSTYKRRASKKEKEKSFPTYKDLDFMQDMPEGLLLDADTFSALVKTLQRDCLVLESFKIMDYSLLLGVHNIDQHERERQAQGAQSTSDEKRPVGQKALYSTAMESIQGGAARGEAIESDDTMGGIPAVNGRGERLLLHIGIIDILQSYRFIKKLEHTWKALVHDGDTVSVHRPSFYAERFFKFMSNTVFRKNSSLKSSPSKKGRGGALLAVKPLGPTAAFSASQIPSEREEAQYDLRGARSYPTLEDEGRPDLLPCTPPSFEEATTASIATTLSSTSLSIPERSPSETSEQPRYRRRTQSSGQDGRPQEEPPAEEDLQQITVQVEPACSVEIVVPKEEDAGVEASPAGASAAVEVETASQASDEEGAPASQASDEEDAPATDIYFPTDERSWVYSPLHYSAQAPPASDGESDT

- IC50 (PI3KC2A): 4.8e-07 M
SMILES: Oc1cccc(-c2nc(N3CCOCC3)c3oc4ncccc4c3n2)c1 [PI-103, reference compound]

SMILES: O=C1C=CC2(C=C1)OCC(Cc1cn(-c3ccccc3)nn1)C(=O)N2c1ccccc1 (centres unmarked) [2a, 5-Phenyl-3-((1-phenyl-1H-1,2,3-triazol-4-yl)methyl)-1-oxa-5-azaspiro[5.5]undeca-7,10-diene-4,9-dione]
- remaining activity at 10 µM (GSK3β): 62.3 ± 2.3%
- IC50 ([1]; Mus musculus): 670 ± 50 nM
- viability at 24 h, 1 µM (MTT cell viability assay; 1 μM compound): 92.9 ± 0.24%
- viability at 24 h, 5 µM (MTT cell viability assay; 5 μM compound, % of LPS): 81 ± 3%
- iNOS expression level (iNOS): limited potency and efficacy
- COX-2 expression level (COX-2): limited potency and efficacy

SMILES: CC(=O)Nc1nc(C)c(-c2ccc(Cl)c(S(=O)(=O)NCCO)c2)s1 [PIK-93, reference compound]
- IC50 (PI3KC3): 75.7 nM
- IC50 (PI4K2A): 18500 nM
- IC50 (PIP5K1A): 61800 nM
- IC50 (PIP5K1C): 17500 nM

- % GSK3β Residual Activity (GSK3β): 91.0 ± 12.6%
- IC50 [1]: 980 ± 30 nM
SMILES: O=C1C=CC2(C=C1)OCC(Cc1ccccc1CS(=O)(=O)c1ccccc1)C(=O)N2c1ccccc1 (centres unmarked) [1b]
- Cell Viability (%) (BV-2 cells): 84 ± 3%

— article PMC7719162, “Positioning of an unprecedented spiro[5.5]undeca ring system into kinase inhibitor space” (Scientific Reports, 2020)
